Data taken from patent US20230172959A1, “USE OF NMN FOR THE PREVENTION AND/OR TREATMENT OF A BACK PAIN AND CORRESPONDING COMPOSITIONS” (NUVAMID SA, priority 2020, published 2023).
Several values for one entry are separate records, joined by “and”; a condition that tells them apart may be missing. Identical values can stand only once.

How the values were obtained:
chronic lumbalgia [1] = test: Visual Analogue Scale (VAS) of lumbalgia pain, 10-day satisfaction study in 12 volunteers; type: in vivo, human; conditions: for VAS lumbalgia pain, median / VAS lumbalgia pain, mean: 5% NMN oil-in-water emulsion topical twice a day, scale 0-100; for VAS lumbalgia pain, median: baseline D 0 72.5; for VAS lumbalgia pain, mean: baseline D 0 73.4
Procedure: A satisfaction study was carried out on a group of 12 volunteers, aged 42±8 years, consisting of seven female and five male subjects. The main objective of this study was to evaluate the level of satisfaction of subjects with regard to the evolution of their lumbalgia (low back pain) during the morning and/or evening application of a composition according to the invention containing 5% by weight of NMN. The duration of the existence of pains in the lumbar spine region was on average 4±3 years (ie […]) while the current pains of the subjects dated back to 2±3 years pre-baseline (before inclusion). These pains occurred mostly spontaneously (58.3%). More precisely, seven participants presented with a lumbalgia of spontaneous origin, one participant presented with a lumbalgia resulting from a physical or sporting activity, two participants attributed their lumbalgia to the practice of gardening, and two other participants attributed their lumbalgia to another of these causes. The participants therefore all had chronic lumbalgia. A composition in the form of an oil-in-water emulsion comprising 5% NMN was formulated as follows, the ingredients being designated by their INCI (International Nomenclature of Cosmetic Ingredients) name: Aqua, Paraffinum liquidum, Cetyl alcohol, Glyceryl stearate, Benzyl PCA, Ceteareth-20, Ceteareth-12, Cetyl Palmitate, Cocoglycerides, Cetearyl alcohol, Sodium Hydroxide, NMN. The composition was prepared according to any method well known to the person skilled in the art. The study took place over 10 days. At baseline, ie upon inclusion (DO), the selected subjects provide their demographic characteristics (age, weight, height), indicate the period of persistence and intensity of the pain on a Visual Analogue Scale, and complete the WOMAC and Lequesne questionnaires. These different scales were used in order to assess by different means the effect of NMN on lumbalgia. Over the subsequent 9 day period, each evening the subjects fill in the Visual Analogue Scale of pain, ensuring any discomfort or problems arising or the taking of analgesics are reported therein. On day 10, the volunteers complete the WOMAC questionnaire, the Lequesne questionnaire, the Visual Analogue Scale (VAS) of pain, indicating the perceived improvement in lumbalgia pain relief as measured by the PGI-I index (abbreviation for “Patient Global Improvement Impression”), satisfaction with regard to evolution of the lumbalgia on a Likert scale as well as the ease of application and penetration of the composition, assessment of the texture and odour of the composition, likelihood of re-use thereof in the event of recurrence of a similar pain, and recommendation of use to third parties presenting with pain of similar nature. The PGI-I index is an index that serves as means for evaluating the response to a treatment. The Likert scale is a psychometric tool used for measuring an attitude in individuals, which consists of one or more statements for which the individual responding expresses their degree of agreement or disagreement.

chronic lumbalgia [2] = test: WOMAC questionnaire, 10-day satisfaction study in 12 volunteers; type: in vivo, human
Procedure: More precisely, the WOMAC score is calculated on the basis of the responses to the questions below: The total score corresponds to the average of the 24 items. The same is true for the score for each area of assessment. A satisfaction study was carried out on a group of 12 volunteers, aged 42±8 years, consisting of seven female and five male subjects. The main objective of this study was to evaluate the level of satisfaction of subjects with regard to the evolution of their lumbalgia (low back pain) during the morning and/or evening application of a composition according to the invention containing 5% by weight of NMN. A composition in the form of an oil-in-water emulsion comprising 5% NMN was formulated as follows, the ingredients being designated by their INCI (International Nomenclature of Cosmetic Ingredients) name: Aqua, Paraffinum liquidum, Cetyl alcohol, Glyceryl stearate, Benzyl PCA, Ceteareth-20, Ceteareth-12, Cetyl Palmitate, Cocoglycerides, Cetearyl alcohol, Sodium Hydroxide, NMN. The composition was prepared according to any method well known to the person skilled in the art. The study took place over 10 days. At baseline, ie upon inclusion (DO), the selected subjects provide their demographic characteristics (age, weight, height), indicate the period of persistence and intensity of the pain on a Visual Analogue Scale, and complete the WOMAC and Lequesne questionnaires. These different scales were used in order to assess by different means the effect of NMN on lumbalgia. On day 10, the volunteers complete the WOMAC questionnaire, the Lequesne questionnaire, the Visual Analogue Scale (VAS) of pain, indicating the perceived improvement in lumbalgia pain relief as measured by the PGI-I index (abbreviation for “Patient Global Improvement Impression”), satisfaction with regard to evolution of the lumbalgia on a Likert scale as well as the ease of application and penetration of the composition, assessment of the texture and odour of the composition, likelihood of re-use thereof in the event of recurrence of a similar pain, and recommendation of use to third parties presenting with pain of similar nature. The PGI-I index is an index that serves as means for evaluating the response to a treatment. The Likert scale is a psychometric tool used for measuring an attitude in individuals, which consists of one or more statements for which the individual responding expresses their degree of agreement or disagreement.

[3] = after 10 days vs baseline, p<0.001

SMILES: NC(=O)c1ccc[n+]([C@@H]2O[C@H](COP(=O)([O-])O)[C@@H](O)[C@H]2O)c1 (stereo in doubt) [NMN, nicotinamide mononucleotide]
- reduction of lumbalgia pain measured by the VAS (chronic lumbalgia [1]; 10 days of application vs baseline, 5% NMN emulsion topical, p<0.0001): 58.7±29.2% and 58.7%
- VAS lumbalgia pain, median (chronic lumbalgia [1]; D 1): 60.5
- VAS lumbalgia pain, mean (chronic lumbalgia [1]; D 1): 61.1
- VAS lumbalgia pain, median (chronic lumbalgia [1]; D 2): 59.0
- VAS lumbalgia pain, mean (chronic lumbalgia [1]; D 2): 56.8
- VAS lumbalgia pain, median (chronic lumbalgia [1]; D 3): 57.5
- VAS lumbalgia pain, mean (chronic lumbalgia [1]; D 3): 52.3
- VAS lumbalgia pain, median (chronic lumbalgia [1]; D 4): 51.0
- VAS lumbalgia pain, mean (chronic lumbalgia [1]; D 4): 49.4
- VAS lumbalgia pain, median (chronic lumbalgia [1]; D 5): 45.5
- VAS lumbalgia pain, mean (chronic lumbalgia [1]; D 5): 45.7
- VAS lumbalgia pain, median (chronic lumbalgia [1]; D 6): 42.5
- VAS lumbalgia pain, mean (chronic lumbalgia [1]; D 6): 42.4
- VAS lumbalgia pain, median (chronic lumbalgia [1]; D 7): 48.0
- VAS lumbalgia pain, mean (chronic lumbalgia [1]; D 7): 45.2
- VAS lumbalgia pain, median (chronic lumbalgia [1]; D 8): 38.0
- VAS lumbalgia pain, mean (chronic lumbalgia [1]; D 8): 35.8
- VAS lumbalgia pain, median (chronic lumbalgia [1]; D 9): 26.0
- VAS lumbalgia pain, mean (chronic lumbalgia [1]; D 9): 28.3
- VAS lumbalgia pain, median (chronic lumbalgia [1]; D 10): 30.0
- VAS lumbalgia pain, mean (chronic lumbalgia [1]; D 10): 30.8±22.6 and 30.8
- mean time period to obtain an initial 50% reduction in pain relative to baseline (chronic lumbalgia [1]; VAS, 5% NMN emulsion topical twice a day): 5.0 ± 2.9 days
- WOMAC "function" criterion (chronic lumbalgia [2]; after 10 days of application, baseline 57.1±15.5, 5% NMN emulsion topical): 30.8±21.8
- total WOMAC score (chronic lumbalgia [2]; after 10 days of application, baseline 58.3±14.8, 5% NMN emulsion topical): 30.9±21.7
- WOMAC "pain" criterion (chronic lumbalgia [2]; after 10 days of application, baseline 59.9±13.1, 5% NMN emulsion topical): 31.0±21.2
- WOMAC "stiffness" criterion (chronic lumbalgia [2]; after 10 days of application, baseline 64.2±21.0, 5% NMN emulsion topical): 31.6±25.0
- decrease of total WOMAC score (chronic lumbalgia [2]; [3]): 48.6±33.7%
- reduction of WOMAC "pain" criterion (chronic lumbalgia [2]; [3]): 50.1±31.3%
- reduction of WOMAC "stiffness" criterion (chronic lumbalgia [2]; [3]): 52.5±32.9%
- reduction of WOMAC "function" criterion (chronic lumbalgia [2]; after 10 days vs baseline, p<0.01): 47.5±35.6%
